EP0325936A2, “Aminoguanidine derivatives and inhibitory agents on maillard reaction containing them as active ingredients” (ONO PHARMACEUTICAL CO., LTD., priority 1988, dated 1989)

test system: Maillard reaction; experiment: Inhibitory effect on Maillard reaction in vitro (BSA + glucose incubation, fluorescence); format: biochemical; details: 6mM test compound; 100 mg/ml bovine serum albumin (BSA), 200 mM glucose, 0.5 M phosphatic buffer solution (pH 7.38), incubated for a week at 37°C; fluorescence excitation 360nm, emission 450 nm
Procedure: An inhibitory activity on Maillard reaction of the compounds of the present invention was confirmed by the screening system mentioned below.
In order to evaluate the inhibitory effect on Maillard reaction in vitro, of the compounds in the present invention, the measurement was carried out under conditions described below.
100 mg/ml bovine serum albumin (BSA), 200 mM glucose and 6mM test compound were dissolved in 0.5 M phosphatic buffer solution (pH 7.38), and the mixture was incubated for a week at 37°C.
After incubation, the incubated medium was diluted 100 times with the same phosphatic buffer solution, and the fluorescence spectrum was measured at the excitation maximum of 360nm and the emission maximum of 450 nm.
Inhibition percentage of the test compounds was calculated by the following equation: [formula] ΔI₁ : fluorescence of test compounds ΔI₂ : fluorescence of (test compounds + glucose), ΔI₃ : fluorescence of (test compounds + BSA), ΔI₄ : fluorescence of (test compounds + BSA + glucose), ΔI : fluorescence of (BSA + glucose)

Structure (SMILES)	Inhibitory effect (%) (6mM)
N=C(N)NNc1ccc(Cl)cc1.O=S(=O)(O)O [1(b), 1-(4-chloroanilino) guanidine sulfate]	100%
N=C(N)NNc1ccc(F)cc1.O=S(=O)(O)O [1(c), 1-(4-fluoroanilino) guanidine sulfate]	100%
COc1ccc(NNC(=N)N)cc1.O=S(=O)(O)O [1(d), 1-(4-methoxyanilino) guanidine sulfate]	100%
Cc1ccc(NNC(=N)N)cc1.O=S(=O)(O)O [1(h), 1-(4-methylanilino) guanidine sulfate]	83%
N=C(N)NNc1cccc([N+](=O)[O-])c1.O=S(=O)(O)O [1(j), 1-(3-nitroanilino) guanidine sulfate]	94%
N=C(N)NNc1ccccc1Cl.O=S(=O)(O)O [Example 1(a), 1-(2-chloroanilino) guanidine sulfate]	79%
N=C(N)NNc1ccccc1.O=S(=O)(O)O [Example 1, 1-anilinoguanidine sulfate]	79%
